Assay results as given in PMC4550478, “Metronidazole-triazole conjugates: Activity against Clostridium difficile and parasites” (European Journal of Medicinal Chemistry, 2015).
≈ marks a conversion by molar mass, not a printed value. Like-named read-outs stand apart in the source and are kept apart here.

Experiments:
[1] = system: C. difficile VPI10463 ATCC 43255; assay: MIC broth microdilution, C. difficile VPI 10463; format: cell-based, Clostridium difficile; conditions: Clostridioides difficile, ATCC 43255 / ATCC BAA-1803; VPI 10463, MtzS, 24 h, median of at least n = 4
Protocol: (§1) All compounds were tested for activity against a set of anaerobic C. difficile bacteria (630 ATCC BAA-1382, NAP1/027 M7404, NAP1/027 ATCC BAA-1803, VPI10463 ATCC 43255, CD26A54_S and CD26A54_R) and representative ESKAPE pathogens S. aureus (MRSA ATCC 43300), E. coli (ATCC 25922), K. pneumoniae (ATCC 700603), A. baumannii (ATCC 19606) and P. aeruginosa (ATCC 27853) using a standard broth microdilution assay. Selected compounds were tested for activity against H. pylori strains (26695, and clinical isolates MtzS 13/25, MtzR 98/285 and MtzR 13/61) using agar plate dilution, and for antimicrobial activity against […] Gram-positive bacterial strains: Enterococcus faecalis (VanA clinical isolate), Enterococcus faecium (MDR VanA ATCC 51559), Streptococcus pneumoniae (MDR ATCC 700677), S. aureus (MRSA ATCC 43300, MRSA clinical isolate, MRSA/DRSA clinical isolate, GISA NARSA NRS 1, GISA NARSA NRS 17, VRSA NARSA VRS1, VRSA NARSA VRS4 and VRSA NARSA VRS10) using broth microdilution. C. difficile strains were grown at 37 °C in a COY anaerobic chamber (5% H2, 10% CO2, 85% N2). H. pylori strains were grown at 37 °C under a microaerobic atmosphere (5% O2, 10% CO2). All facultative anaerobic bacteria were grown at 37 °C with normal atmospheric oxygen levels. All experiments were performed in duplicate with metronidazole, vancomycin, linezolid or colistin as positive controls for relevant strains (see Table 1). Positive growth control of bacteria and DMSO as well as a negative control of only media were included for every plate. Full assay details are provided in the supplementary information.
(§2) C. difficile ATCC BAA-1382, ATCC BAA-1803, ATCC 43255 and M7404 heat shocked spore stocks (10 µL) were transferred into the anaerobic chamber and 10 µL streaked onto pre-reduced (at least 2.5 hr in anaerobic chamber) BHIS agar plates supplemented with 0.1% w/v sodium taurocholate (BHIS(TA)). Plates were incubated for 24 hours prior to assay to give colonies of size 1-3mm diameter with characteristic uneven borders.
(§3) The minimum inhibition concentration was determined according to the CLSI Methods with modifications in broth and inoculum for C. difficile according to Babakhani et al.^7,8 Briefly, compounds were prepared to 20X final concentration in 100% water, 60% DMSO and 40% water or 60% DMSO and 40% media. The compounds along with standard antibiotics were serially diluted two-fold across the wells of 96-well non-binding surface plates (Non binding surface, Corning). The plates were placed in the anaerobic chamber overnight to reduce. C. difficile bacteria from BHIS(TA) agar plates were cultured anaerobically in BHIS at 37 °C overnight. A sample of culture was then diluted 40-fold in BHIS broth and incubated at 37 °C for approximately 4.5 hrs. The resultant mid-log phase culture (OD600= 0.5-0.6) was diluted to the final concentration of ~1×10^6 CFU/mL, then 50 µL was added to each well of the compound-containing 96-well plates. This gave final cell concentration of 5×10^5 CFU/mL, final volume 100 µL and 3% maximum DMSO concentration. Compound concentration was typically from 64 to 0.03 µg/mL. An antibiotic standard was included on each 96 well plate as well as a positive growth control (no compound) and sterility control (no bacteria). All the plates were covered and incubated at 37 °C for 24 h. MICs were the lowest concentration showing no visible growth.

[2] = system: C. difficile NAP1/027 ATCC BAA-1803; assay: MIC broth microdilution, C. difficile NAP1/027 ATCC BAA-1803; format: cell-based, Clostridium difficile; conditions: Clostridioides difficile
Protocol: as §1, §2
as §3, with “All the plates were covered and incubated at 37 °C for 24 h.” left out

[3] = ATCC 43255 / ATCC BAA-1803, NAP1/027 (footnote c: ATCC 43255), MtzS, 24 h, median of at least n = 4, read-out: MIC C. difficile NAP1/027 (footnote c)
[4] = ATCCBAA1803, 24 hr incubation, read-out: MIC C. difficile NAP1/027 ATCC BAA-1803 24 hr
[5] = ATCCBAA1803, 48 hr incubation, read-out: MIC C. difficile NAP1/027 ATCC BAA-1803 48 hr

Compound | MIC [1] | MIC [2, 3] | MIC [2, 4] | MIC [2, 5]
Cc1ccc(-c2cn(CCn3c([N+](=O)[O-])cnc3C)nn2)cc1 [Compound 4e, 1-(2-(2-methyl-5-nitro-1H-imidazol-1-yl)ethyl)-4-(p-tolyl)-1H-1,2,3-triazole] | 0.25 µg/mL (≈ 0.8 µM) | 0.5 µg/mL (≈ 1.6 µM) | 0.5 µg/mL (≈ 1.6 µM) | 0.5 µg/mL (≈ 1.6 µM)
Cc1ncc([N+](=O)[O-])n1CCn1cc(Cn2cccn2)nn1 [Compound 4g, 1-(2-(2-methyl-5-nitro-1H-imidazol-1-yl)ethyl)-4-((1H-pyrazol-1-yl)methyl)-1H-1,2,3-triazole] | 1 µg/mL (≈ 3.31 µM) | 1 µg/mL (≈ 3.31 µM) | 1 µg/mL (≈ 3.31 µM) | 1 to 2 µg/mL (≈ 3.31 to 6.62 µM)
Cc1ncc([N+](=O)[O-])n1CCn1cc(-c2ncccn2)nn1 [Compound 4j, 1-(2-(2-methyl-5-nitro-1H-imidazol-1-yl)ethyl)-4-(2-pyrimidinyl)-1H-1,2,3-triazole] | 2 µg/mL (≈ 6.66 µM) | 2 µg/mL (≈ 6.66 µM) | 2 µg/mL (≈ 6.66 µM) | 2 µg/mL (≈ 6.66 µM)
Cc1ncc([N+](=O)[O-])n1CCn1cc(-c2ccccn2)nn1 [Compound 4h, 1-(2-(2-methyl-5-nitro-1H-imidazol-1-yl)ethyl)-4-(2-pyridinyl)-1H-1,2,3-triazole.xTFA] | 0.5 µg/mL | 0.5 µg/mL | 0.5 µg/mL | 0.5 to 1 µg/mL
Cc1ncc([N+](=O)[O-])n1CCn1cc(C(O)c2ccccc2)nn1 (centres unmarked) [Compound 4l, 1-(2-(2-methyl-5-nitro-1H-imidazol-1-yl)ethyl)-4-(1-phenyl-1-hydroxylmethyl)-1H-1,2,3-triazole] | 0.5 µg/mL (≈ 1.52 µM) | 1 µg/mL (≈ 3.05 µM) | 0.5 to 1 µg/mL (≈ 1.52 to 3.05 µM) | 1 µg/mL (≈ 3.05 µM)
COc1ccc(-c2cn(CCn3c([N+](=O)[O-])cnc3C)nn2)cc1 [Compound 4b, 1-(2-(2-methyl-5-nitro-1H-imidazol-1-yl)ethyl)-4-(4-methoxyphenyl)-1H-1,2,3-triazole] | 0.25 to 0.5 µg/mL (≈ 0.761 to 1.52 µM) | 0.5 µg/mL (≈ 1.52 µM) | 0.5 µg/mL (≈ 1.52 µM) | 0.5 µg/mL (≈ 1.52 µM)
COC(=O)c1cn(CCn2c([N+](=O)[O-])cnc2C)nn1 [Compound 4f, 1-(2-(2-methyl-5-nitro-1H-imidazol-1-yl)ethyl)-4-(methoxycarbonyl)-1H-1,2,3-triazole] | 1 µg/mL (≈ 3.57 µM) | 1 µg/mL (≈ 3.57 µM) | 1 µg/mL (≈ 3.57 µM) | 1 µg/mL (≈ 3.57 µM)
Cc1ncc([N+](=O)[O-])n1CCn1cc(-c2ccccc2)nn1 [Compound 4a, 1-(2-(2-methyl-5-nitro-1H-imidazol-1-yl)ethyl)-4-phenyl-1H-1,2,3-triazole] | 0.25 to 0.5 µg/mL (≈ 0.838 to 1.68 µM) | 0.5 µg/mL (≈ 1.68 µM) | 0.5 µg/mL (≈ 1.68 µM) | 0.5 µg/mL (≈ 1.68 µM)
Cc1ncc([N+](=O)[O-])n1CCn1cc(-c2cncnc2)nn1 [Compound 4i, 1-(2-(2-methyl-5-nitro-1H-imidazol-1-yl)ethyl)-4-(5-pyrimidinyl)-1H-1,2,3-triazole] | 1 µg/mL (≈ 3.33 µM) | 0.5 to 1 µg/mL (≈ 1.67 to 3.33 µM) | 1 µg/mL (≈ 3.33 µM) | 1 µg/mL (≈ 3.33 µM)
Cc1ncc([N+](=O)[O-])n1CCn1cc(-c2ccc(Cl)cc2)nn1 [Compound 4c, 1-(2-(2-methyl-5-nitro-1H-imidazol-1-yl)ethyl)-4-(4-chlorophenyl)-1H-1,2,3-triazole] | 0.25 µg/mL (≈ 0.751 µM) | 0.25 µg/mL (≈ 0.751 µM) | 0.25 µg/mL (≈ 0.751 µM) | 0.5 µg/mL (≈ 1.5 µM)
Cc1ncc([N+](=O)[O-])n1CCn1cc(CO)nn1 [Compound 4q, 1-(2-(2-methyl-5-nitro-1H-imidazol-1-yl)ethyl)-4-(hydroxymethyl)-1H-1,2,3-triazole] | 16 µg/mL (≈ 63.4 µM) | 16 to 32 µg/mL (≈ 63.4 to 127 µM) | 16 µg/mL (≈ 63.4 µM) | 16 to 32 µg/mL (≈ 63.4 to 127 µM)
Cc1ncc([N+](=O)[O-])n1CCn1cc(CCC(=O)O)nn1 [Compound 4r, sodium 1-(2-(2-methyl-5-nitro-1H-imidazol-1-yl)ethyl)-4-(carboxyethyl)-1H-1,2,3-triazole] | > 64 µg/mL | > 64 µg/mL | > 64 µg/mL | > 64 µg/mL
Cc1ncc([N+](=O)[O-])n1CCn1cc(CN(C)Cc2ccccc2)nn1 [Compound 4m, 1-(2-(2-methyl-5-nitro-1H-imidazol-1-yl)ethyl)-4-(N-benzyl, N-methylaminomethyl)-1H-1,2,3-triazole] | 1 to 2 µg/mL (≈ 2.81 to 5.63 µM) | 1 µg/mL (≈ 2.81 µM) | 2 µg/mL (≈ 5.63 µM) | 1 to 2 µg/mL (≈ 2.81 to 5.63 µM)
Cc1ncc([N+](=O)[O-])n1CCn1cc(CCO)nn1 [Compound 4p, 1-(2-(2-methyl-5-nitro-1H-imidazol-1-yl)ethyl)-4-(2-hydroxyethyl)-1H-1,2,3-triazole] | 8 µg/mL (≈ 30 µM) | 16 µg/mL (≈ 60.1 µM) | 8 µg/mL (≈ 30 µM) | 8 to 16 µg/mL (≈ 30 to 60.1 µM)
Cc1ncc([N+](=O)[O-])n1CCn1cc(CN)nn1.O=C(O)C(F)(F)F [Compound 4t, 1-(2-(2-methyl-5-nitro-1H-imidazol-1-yl)ethyl)-4-(aminomethyl)-1H-1,2,3-triazole trifluoroacetate salt] | > 64 µg/mL | > 64 µg/mL | > 64 µg/mL | > 64 µg/mL
Cc1ncc([N+](=O)[O-])n1CCn1cc(Cc2ccccc2)nn1 [Compound 4k, 1-(2-(2-methyl-5-nitro-1H-imidazol-1-yl)ethyl)-4-benzyl-1H-1,2,3-triazole] | 0.25 to 0.5 µg/mL (≈ 0.8 to 1.6 µM) | 0.5 µg/mL (≈ 1.6 µM) | 0.5 µg/mL (≈ 1.6 µM) | 0.5 µg/mL (≈ 1.6 µM)
Cc1ncc([N+](=O)[O-])n1CCn1cc(-c2ccc(Cl)c(Cl)c2)nn1 [Compound 4d, 1-(2-(2-methyl-5-nitro-1H-imidazol-1-yl)ethyl)-4-(3,4-dichlorophenyl)-1H-1,2,3-triazole] | 0.5 to 1 µg/mL (≈ 1.36 to 2.72 µM) | 1 µg/mL (≈ 2.72 µM) | 1 µg/mL (≈ 2.72 µM) | 0.5 to 8 µg/mL (≈ 1.36 to 21.8 µM)
Cc1ncc([N+](=O)[O-])n1CCO [Compound 1, metronidazole] | 0.5 µg/mL (≈ 2.92 µM) | 0.5 µg/mL (≈ 2.92 µM) | 0.5 µg/mL (≈ 2.92 µM) | 0.5 µg/mL (≈ 2.92 µM)
Cc1ncc([N+](=O)[O-])n1CCn1cc(-c2ccsc2)nn1 [Compound 4n, 1-(2-(2-methyl-5-nitro-1H-imidazol-1-yl)ethyl)-4-(thiophen-3-yl)-1H-1,2,3-triazole] | 0.25 to 0.5 µg/mL (≈ 0.821 to 1.64 µM) | 0.5 µg/mL (≈ 1.64 µM) | 0.5 µg/mL (≈ 1.64 µM) | 0.5 µg/mL (≈ 1.64 µM)
Cc1ncc([N+](=O)[O-])n1CCn1cc(C(=O)O)nn1 [Compound 4s, 1-(2-(2-methyl-5-nitro-1H-imidazol-1-yl)ethyl)-4-(carboxy)-1H-1,2,3-triazole] | 64 µg/mL (≈ 240 µM) | 64 µg/mL (≈ 240 µM) | 64 µg/mL (≈ 240 µM) | 64 µg/mL (≈ 240 µM)
